# Source: patent publication US20040229960A1, “Compositions and methods of administering tubulin binding agents for the treatment of ocular diseases” (priority 2001, published 2004)
# What was measured:
# [1] = Biodistribution of 14C-CA4P following topical administration of a solution formulation; format: in vivo, New Zealand rabbits
# Procedure: ^14C-CA4P (OXiGENE Inc., Watertown, Mass.) was resuspended in 100 ul volume of saline solution and injected with a 30 G needle into the right eyes of anesthesized male New Zealand rabbits (4 months old, 1.8-2.5 kg, n=3 per sample). Three different concentrations of ^14C-CA4P were tested (1, 10, 100 mg/ml) corresponding to doses of 1, 5, and 5 uCi of applied radioactivity respectively. A blank control group was also included. Rabbits were anaesthetized at 1, 6, 24, and 48 hours for blood sampling. After blood collection, the animals were euthanized by Phenobarbital injection and the treated right eyes were removed from all test animals. Ocular tissue samples were dissected from the cornea, aqueous humor, vitreous humor, choroid, or retina, placed in 20-mi glass scintillation vials, vortexed, and incubated for 24 hrs with 500 ul digesting fluid. Plasma was separated from whole blood by centrifugation (1,800 g for 10 minutes). Both ocular tissue samples and plasma were incubated at room temperature with 16 ml of Hionic Fluor™ scintillation fluid for a period of 24 hours prior to radioactivity counting. Each sample was counted for 5 minutes in a Betamatic V counter (Bio-Tek Kontron Instruments, St Quentin en Yvelines, France). The conversion of counts per minute (“cpm”) into disintegrations per minute (“dpm”) was performed automatically by the beta-counter, using calibration curves obtained from ^14C-standards and quenching curves from the respective blank matrices spiked with ^14C-standards. The concentration of drug was determined according to nanogram equivalents of CA4P (ng-Eq/g of tissue) which was calculated from the measured dpm value, the weight of the tissue specimen, and the specific activity of the drug (0.37 mCi/mg), followed by subtraction of the corresponding background value from control eye tissue. A tissue concentration of 1 uM CA4P is equal to […] tissue.
# Topical gels and solutions were developed for use as topical formulation suitable for the topical delivery of CA4P to the surface of the eye. Topical solutions (1, 3, and 10%) was directly prepared in 0.9% NaCl (Aguettant, Lyon, France) and sterilized with 0.2 um filter (pH 6.4 to 8.5, osmolarity 290 to 459 mosmol/kg H2O. Low viscosity topical gels (1,3,and 10%) were prepared in 0.5% carboxymethylcellulose (Sigma Aldrich Chimie, St. Quentin Fallavier Cedex, France) with 0.9% NaCl. The physicochemical specifications of each gel are listed in Table 5
# Topical formulations were applied to the surface of right eyes at an applied dose of 5 uCi in a volume of 50 ul. Cornea was sampled instead of sclera. Samples were taken at […] and 24 hours.
# [2] = Transscleral iontophoretic delivery to retina/choroid (LC/MS/MS); format: in vivo, New Zealand white rabbits; settings: for Enhancement: 20 min vs passive 0 mA; for Amount CA4P Delivered / Amount CA4 Delivered / Total Combretastatin Delivered: retina/choroid, mean ± SD; for Amount CA4P Delivered / Amount CA4 Delivered: CA4P 10 mg/ml; for Amount CA4 Delivered: extrapolated beyond quantification range
# Procedure: CA4P is ionizable at physiological pH and therefore is amenable to iontophoretic delivery. The effectiveness of transcleral iontophoretic delivery of CA4P was evaluated using an ocular rabbit ophthalmic applicator (IOMED Inc.,.Salt Lake City, Utah) composed of an 180 ul silicone receptacle shell backed with silver chloride-coated silver foil current distribution component, a connector lead wire, and a single layer of hydrogel-impregnated polyvinyl acetal matrix to which CA4P (10 mg/ml) was administered. The contact surface area of the applicator was 0.54 cm^2. […] Direct current anodal iontophoresis was performed with each applicator at 2,3,and 4 mA for 20 min using an Phoresor II™ PM 700 (IOMED Inc., Salt Lake City, Utah) power supply. Passive iontophoresis (0 mA for 20 min) was used as a control. Following treatment, the animals were euthanized, and eyes were enucleated 30 minutes post-treatment, rinsed with tap water, and frozen at −70 C. Retina and choirodal tissue was dissected from these sample.
# CA4P, CA, and the internal standard Diethylstilbestrol (Sigma Chemical Company) were quantified from approximately 100 mg of tissue using chromatography tandem mass spectrometry (“LC/MS/MS”) method. An aliquot of methonal extraction was injected onto a SCIEX APIO 3000 LC/MS/MS apparatus equipped with an HPLC colum. Peak area of the m/z 315→285 product ion of CA43 and m/z 395→79 product ion of CA4P were measured against the peak area of the m/z 267→237 product ion of the internal standard. Quantitation was performed using weighted (1/x) linear least squares regression analyses generated from fortified calibration standards prepared immediately prior to each run. […] These levels represent a several thousand-fold excess over what is considered to be a therapeutically relevant concentration for inhibiting tubulin binding (2-3 uM).
# retinoblastoma = experiment: Murine transgenic model of retinoblastoma, subconjunctival treatment; format: in vivo, SV-40 Large T antigen positive mice
# Procedure: A murine transgenic model of retinoblastoma was used in which SV-40 Large T antigen positive mice develop bilateral retinoblastoma resembling human pediatric retinoblastoma. In this model, tumors first appear at 4 weeks of age and develop in a stable and reproducible manner (Hayden et al., Arch Ophthalmol. 2002;120(3):353-9). In one experiment, 12-week old animals (n=48) were treated with a single 20 ul subconjunctival injection of CA4P (100 mg/ml) in the right eye only. Control mice (n=8) were treated with a balanced salt solution (“BSS”). Eyes were sampled by enucleation at Days 1, 3, 7, 14, 21, and 28 post treatment (n=8 eyes per sample). Samples were fixed, paraffin embedded, serially sectioned, and stained with heometoxylin, eosin, and PAS prior. Each tissue sample was examined for histopathological tumor vascular response.
# In a separate dosing experiment, animals (n=48) were treated with 6 serial biweekly subconjunctival injections of CA4P, at concentrations of 100, 10, 1, 0.1 or 0.01 mg/ml in a volume of 20 ul (n=6 eyes per sample). A control group (n=6) received serial subconjunctival injections of BSS. Eyes were enucleated at 28 days post-treatment and examined for tumor volume reduction. FIG. 5B illustrates the dose-dependent effect of CA4P on tumor vascular volume in comparison to control.
smiles,measurement,setting,value
"COc1ccc(/C=C\c2cc(OC)c(OC)c(OC)c2)cc1OP(=O)([O-])[O-].[Na+].[Na+] [CA4P, combretastatin A4 disodium phosphate]",Cmax,"[1]; aqueous humor, 1% topical solution",600 nM
same,Cmax,"[1]; aqueous humor, 3% topical solution",1900 nM
same,Cmax,"[1]; aqueous humor, 10% topical solution",4100 nM
same,Cmax,"[1]; choroid, 1% topical solution",870 nM
same,Cmax,"[1]; choroid, 3% topical solution",1900 nM
same,Cmax,"[1]; choroid, 10% topical solution",15600 nM
same,Cmax,"[1]; cornea, 1% topical solution, 50 ul",10000 nM
same,Cmax,"[1]; cornea, 3% topical solution, 50 ul",34000 nM
same,Cmax,"[1]; cornea, 10% topical solution, 50 ul",104000 nM
same,Concentration of drug delivered,"[1]; cornea, all three solution formulations",> 1000 nM
same,Cmax,"[1]; plasma, 1% topical solution",70 nM
same,Cmax,"[1]; plasma, 3% topical solution",840 nM
same,Cmax,"[1]; plasma, 10% topical solution",1270 nM
same,Cmax,"[1]; retina, 1% topical solution",270 nM
same,Cmax,"[1]; retina, 3% topical solution",390 nM
same,Cmax,"[1]; retina, 10% topical solution",4200 nM
same,Time of highest concentrations of drug in the eye,[1]; topical solution,within the first hour
same,Enhancement,[2]; 2 mA,17
same,Enhancement,[2]; 3 mA,16
same,Enhancement,[2]; 4 mA,15
same,Enhancement of delivery of total combretastatin to choroid and retina by iontophoresis,[2]; iontophoresis vs passive delivery,approximately 15 fold
same,Amount CA4P Delivered,"[2]; 0 mA, 20 min (passive)",<0.4 ng
same,Amount CA4 Delivered,"[2]; 0 mA, 20 min (passive)",57 ± 37 ng
same,Total Combretastatin Delivered,"[2]; 0 mA, 20 min (passive)",1.6 ± 1.0 nmol/g
same,Amount CA4P Delivered,"[2]; 2 mA, 20 min",1.4 ± 0.5 ng
same,Amount CA4 Delivered,"[2]; 2 mA, 20 min",910 ± 630 ng
same,Total Combretastatin Delivered,"[2]; 2 mA, 20 min",27 ± 15 nmol/g
same,Amount CA4P Delivered,"[2]; 3 mA, 20 min",3.8 ± 1.5 ng
same,Amount CA4 Delivered,"[2]; 3 mA, 20 min",710 ± 450 ng
same,Total Combretastatin Delivered,"[2]; 3 mA, 20 min",25 ± 17 nmol/g
same,Amount CA4P Delivered,"[2]; 4 mA, 20 min",7.2 ± 6.3 ng
same,Amount CA4 Delivered,"[2]; 4 mA, 20 min",670 ± 440 ng
same,Total Combretastatin Delivered,"[2]; 4 mA, 20 min",24 ± 10 nmol/g
same,Intratumoral vascularity,"retinoblastoma; 6 serial biweekly subconjunctival injections, dose levels above 10 mg/ml, 28 days post-treatment",No intratumoral vascularity was present
same,Toxicity,retinoblastoma; any time point or treatment dose (0.01-100 mg/ml subconjunctival),no evidence of toxicity was noted
same,Intratumoral vascularization,"retinoblastoma; single 20 ul subconjunctival injection, 100 mg/ml, Days 1, 3 and 7",significant reduction in intratumoral vascularization
